Test results published in US20260297081A1, “COMPOUNDS AND METHODS OF TREATING CANCERS” (Cullgen Inc., priority 2023, published 2026).

System: MCF7 cells
Test: Anti-proliferation (viability) of MCF7 cells (Table 7, FIG. 2B)
Type: cell-based
Details: Homo sapiens, MCF7, MCF7 cells, 3-6 days, 10-point serial dilution; read-out: GI IC50 in MCF-7

SMILES | IC50 [nM]
CC(=O)c1c(C)c2cnc(Nc3ccc(N4CCC(N5CC(C(=O)N6CCC(Nc7nc(NC(C)C)ccc7C(=O)Nc7ccc(N(C)C)nn7)CC6)C5)CC4)cn3)nc2n(C2CCCC2)c1=O [CPD-390, 2-((1-(1-(1-(6-((6-acetyl-8-cyclopentyl-5-methyl-7-oxo-7,8-dihydropyrido[2,3-d]pyrimidin-2-yl)amino)pyridin-3-yl)piperidin-4-yl)azetidine-3-carbonyl)piperidin-4-yl)amino)-N-(6-(dimethylamino)pyridazin-3-yl)-6-(isopropylamino)nicotinamide] | > 100
CC(=O)c1c(C)c2cnc(Nc3ccc(N4CCC(N5CC(C(=O)N6CC7(CC(Nc8nc(NC(C)C)ccc8C(=O)Nc8ccc(N(C)C)nn8)C7)C6)C5)CC4)cn3)nc2n(C2CCCC2)c1=O [CPD-391, 2-((2-(1-(1-(6-((6-acetyl-8-cyclopentyl-5-methyl-7-oxo-7,8-dihydropyrido[2,3-d]pyrimidin-2-yl)amino)pyridin-3-yl)piperidin-4-yl)azetidine-3-carbonyl)-2-azaspiro[3.3]heptan-6-yl)amino)-N-(6-(dimethylamino)pyridazin-3-yl)-6-(isopropylamino)nicotinamide] | > 100
CC(=O)c1c(C)c2cnc(Nc3ccc(CN4CCC(CC(=O)N5CCC(Nc6nc(NC(C)C)ccc6C(=O)Nc6ccc(N(C)C)nn6)CC5)CC4)cn3)nc2n(C2CCCC2)c1=O [CPD-392, 2-((1-(2-(1-((6-((6-acetyl-8-cyclopentyl-5-methyl-7-oxo-7,8-dihydropyrido[2,3-d]pyrimidin-2-yl)amino)pyridin-3-yl)methyl)piperidin-4-yl)acetyl)piperidin-4-yl)amino)-N-(6-(dimethylamino)pyridazin-3-yl)-6-(isopropylamino)nicotinamide] | > 100
CC(=O)c1c(C)c2cnc(Nc3ccc(N4CCC(N5CCC(C(=O)N6CC(Nc7nc(NC(C)C)ccc7C(=O)Nc7ccc(N(C)C)nn7)C6)C5)CC4)cn3)nc2n(C2CCCC2)c1=O (centres unmarked) [CPD-394, 2-((1-(1-(1-(6-((6-acetyl-8-cyclopentyl-5-methyl-7-oxo-7,8-dihydropyrido[2,3-d]pyrimidin-2-yl)amino)pyridin-3-yl)piperidin-4-yl)pyrrolidine-3-carbonyl)azetidin-3-yl)amino)-N-(6-(dimethylamino)pyridazin-3-yl)-6-(isopropylamino)nicotinamide] | > 100
CC(=O)c1c(C)c2cnc(Nc3ccc(N4CCC(N5CCC(C(=O)N6CCC(Nc7nc(NC(C)C)ccc7C(=O)Nc7ccc(N(C)C)nn7)C6)C5)CC4)cn3)nc2n(C2CCCC2)c1=O (centres unmarked) [CPD-395, 2-((1-(1-(1-(6-((6-acetyl-8-cyclopentyl-5-methyl-7-oxo-7,8-dihydropyrido[2,3-d]pyrimidin-2-yl)amino)pyridin-3-yl)piperidin-4-yl)pyrrolidine-3-carbonyl)pyrrolidin-3-yl)amino)-N-(6-(dimethylamino)pyridazin-3-yl)-6-(isopropylamino)nicotinamide] | > 100
CC(=O)c1c(C)c2cnc(Nc3ccc(N4CCC(N5CCC(C(=O)N6CCC(Nc7nc(NC(C)C)ccc7C(=O)Nc7ccc(N(C)C)nn7)CC6)C5)CC4)cn3)nc2n(C2CCCC2)c1=O (centres unmarked) [CPD-396, 2-((1-(1-(1-(6-((6-acetyl-8-cyclopentyl-5-methyl-7-oxo-7,8-dihydropyrido[2,3-d]pyrimidin-2-yl)amino)pyridin-3-yl)piperidin-4-yl)pyrrolidine-3-carbonyl)piperidin-4-yl)amino)-N-(6-(dimethylamino)pyridazin-3-yl)-6-(isopropylamino)nicotinamide] | > 100
CC(=O)c1c(C)c2cnc(Nc3ccc(N4CCN(C5CN(C(=O)C6CC7(CC(Nc8nc(NC(C)C)ccc8C(=O)Nc8ccc(N(C)C)nn8)C7)C6)C5)CC4)cn3)nc2n(C2CCCC2)c1=O (centres unmarked) [CPD-401, 2-((6-(3-(4-(6-((6-acetyl-8-cyclopentyl-5-methyl-7-oxo-7,8-dihydropyrido[2,3-d]pyrimidin-2-yl)amino)pyridin-3-yl)piperazin-1-yl)azetidine-1-carbonyl)spiro[3.3]heptan-2-yl)amino)-N-(6-(dimethylamino)pyridazin-3-yl)-6-(isopropylamino)nicotinamide] | > 100
CC(=O)c1c(C)c2cnc(N(C)c3ccc(N4CCN(CCC(=O)N5CC6(CC(Nc7nc(NC(C)C)ccc7C(=O)Nc7cc(C)n(C)n7)C6)C5)CC4)cn3)nc2n(C2CCCC2)c1=O [CPD-404, 2-((2-(3-(4-(6-((6-acetyl-8-cyclopentyl-5-methyl-7-oxo-7,8-dihydropyrido[2,3-d]pyrimidin-2-yl)(methyl)amino)pyridin-3-yl)piperazin-1-yl)propanoyl)-2-azaspiro[3.3]heptan-6-yl)amino)-N-(1,5-dimethyl-1H-pyrazol-3-yl)-6-(isopropylamino)nicotinamide] | > 100
[2H]C([2H])([2H])Nc1ccc(C(=O)Nc2cn(C)c(C3CC3)n2)c(NC2CC3(CC(NC(=O)C(C)N4CCN(c5ccc(Nc6ncc7c(C)c(C(C)=O)c(=O)n(C8CCCC8)c7n6)nc5)CC4)C3)C2)n1 (centres unmarked) [CPD-405, 2-((6-(2-(4-(6-((6-acetyl-8-cyclopentyl-5-methyl-7-oxo-7,8-dihydropyrido[2,3-d]pyrimidin-2-yl)amino)pyridin-3-yl)piperazin-1-yl)propanamido)spiro[3.3]heptan-2-yl)amino)-N-(2-cyclopropyl-1-methyl-1H-imidazol-4-yl)-6-((methyl-d3)amino)nicotinamide] | > 100

Other lines, results leading:

IC50 [nM] | SMILES
> 100 | CC(=O)c1c(C)c2cnc(Nc3ccc(C4CCC(NCC(=O)N5CCC(Nc6nc(NC(C)C)ccc6C(=O)Nc6ccc(N(C)C)nn6)CC5)CC4)cn3)nc2n(C2CCCC2)c1=O (centres unmarked) [CPD-389, 2-((1-((4-(6-((6-acetyl-8-cyclopentyl-5-methyl-7-oxo-7,8-dihydropyrido[2,3-d]pyrimidin-2-yl)amino)pyridin-3-yl)cyclohexyl)glycyl)piperidin-4-yl)amino)-N-(6-(dimethylamino)pyridazin-3-yl)-6-(isopropylamino)nicotinamide]
50 to 100 | CC(=O)c1c(C)c2cnc(Nc3ccc(N4CCC(N5CC(C(=O)NC6CC7(C6)CC(Nc6nc(NC(C)C)ccc6C(=O)Nc6ccc(N(C)C)nn6)C7)C5)CC4)cn3)nc2n(C2CCCC2)c1=O (centres unmarked) [CPD-393, 2-((6-(1-(1-(6-((6-acetyl-8-cyclopentyl-5-methyl-7-oxo-7,8-dihydropyrido[2,3-d]pyrimidin-2-yl)amino)pyridin-3-yl)piperidin-4-yl)azetidine-3-carboxamido)spiro[3.3]heptan-2-yl)amino)-N-(6-(dimethylamino)pyridazin-3-yl)-6-(isopropylamino)nicotinamide]
< 50 | CC(=O)c1c(C)c2cnc(Nc3ccc(N4CCC(N5CCC(C(=O)NC6CC7(C6)CC(Nc6nc(NC(C)C)ccc6C(=O)Nc6ccc(N(C)C)nn6)C7)C5)CC4)cn3)nc2n(C2CCCC2)c1=O (centres unmarked) [CPD-397, 2-((6-(1-(1-(6-((6-acetyl-8-cyclopentyl-5-methyl-7-oxo-7,8-dihydropyrido[2,3-d]pyrimidin-2-yl)amino)pyridin-3-yl)piperidin-4-yl)pyrrolidine-3-carboxamido)spiro[3.3]heptan-2-yl)amino)-N-(6-(dimethylamino)pyridazin-3-yl)-6-(isopropylamino)nicotinamide]
50 to 100 | CC(=O)c1c(C)c2cnc(Nc3ccc(N4CCC(N5CCC(C(=O)N6CC7(CC(Nc8nc(NC(C)C)ccc8C(=O)Nc8ccc(N(C)C)nn8)C7)C6)C5)CC4)cn3)nc2n(C2CCCC2)c1=O (centres unmarked) [CPD-398, 2-((2-(1-(1-(6-((6-acetyl-8-cyclopentyl-5-methyl-7-oxo-7,8-dihydropyrido[2,3-d]pyrimidin-2-yl)amino)pyridin-3-yl)piperidin-4-yl)pyrrolidine-3-carbonyl)-2-azaspiro[3.3]heptan-6-yl)amino)-N-(6-(dimethylamino)pyridazin-3-yl)-6-(isopropylamino)nicotinamide]
50 to 100 | CC(=O)c1c(C)c2cnc(Nc3ccc(N4CCN(C5CCN(C(=O)C6CC7(CC(Nc8nc(NC(C)C)ccc8C(=O)Nc8ccc(N(C)C)nn8)C7)C6)C5)CC4)cn3)nc2n(C2CCCC2)c1=O (centres unmarked) [CPD-400, 2-((6-(3-(4-(6-((6-acetyl-8-cyclopentyl-5-methyl-7-oxo-7,8-dihydropyrido[2,3-d]pyrimidin-2-yl)amino)pyridin-3-yl)piperazin-1-yl)pyrrolidine-1-carbonyl)spiro[3.3]heptan-2-yl)amino)-N-(6-(dimethylamino)pyridazin-3-yl)-6-(isopropylamino)nicotinamide]
50 to 100 | CC(=O)c1c(C)c2cnc(Nc3ccc(N4CCN(C5CCN(C(=O)[C@H]6CC[C@@H](Nc7nc(NC(C)C)ccc7C(=O)Nc7ccc(N(C)C)nn7)C6)C5)CC4)cn3)nc2n(C2CCCC2)c1=O (stereo partly drawn) [CPD-403, 2-(((1R,3S)-3-(3-(4-(6-((6-acetyl-8-cyclopentyl-5-methyl-7-oxo-7,8-dihydropyrido[2,3-d]pyrimidin-2-yl)amino)pyridin-3-yl)piperazin-1-yl)pyrrolidine-1-carbonyl)cyclopentyl)amino)-N-(6-(dimethylamino)pyridazin-3-yl)-6-(isopropylamino)nicotinamide]
< 50 | CC(=O)c1c(C)c2cnc(Nc3ccc(N4CCN(C(C)C(=O)NC5CC6(C5)CC(Nc5nc(NC(C)C)ccc5C(=O)Nc5ccc(N(C)C)nn5)C6)CC4)cn3)nc2n(C2CCCC2)c1=O (centres unmarked) [CPD-406, 2-((6-(2-(4-(6-((6-acetyl-8-cyclopentyl-5-methyl-7-oxo-7,8-dihydropyrido[2,3-d]pyrimidin-2-yl)amino)pyridin-3-yl)piperazin-1-yl)propanamido)spiro[3.3]heptan-2-yl)amino)-N-(6-(dimethylamino)pyridazin-3-yl)-6-(isopropylamino)nicotinamide]
< 50 | CC(=O)c1c(C)c2cnc(Nc3ccc(N4CCC5(CC4)CC5C(=O)N4CCC(Nc5nc(NC(C)C)ccc5C(=O)Nc5cc(C)n(C)n5)CC4)cn3)nc2n(C2CCCC2)c1=O (centres unmarked) [CPD-408, 2-((1-(6-(6-((6-acetyl-8-cyclopentyl-5-methyl-7-oxo-7,8-dihydropyrido[2,3-d]pyrimidin-2-yl)amino)pyridin-3-yl)-6-azaspiro[2.5]octane-1-carbonyl)piperidin-4-yl)amino)-N-(1,5-dimethyl-1H-pyrazol-3-yl)-6-(isopropylamino)nicotinamide]
